# Experimental data: patent US20240059735A1, “COMPOSITIONS AND METHODS FOR THE PREVENTION AND TREATMENT OF MIT[…]” (Stealth BioTherapeutics Inc., priority 2016, published 2024)
# Where a SMILES comes first, the peptide text is derived from it. [ ]: non-standard residue; d: D form. Dmt = Cc1cc(O)cc(C)c1C[C@H](N)C(=O)O
# What was measured:
# [1] = tested on: several mammalian cell types; conditions: cited from earlier work
# [2] = 0.01-0.25 mg/kg/hr IV, five days
# Description: Control mitochondrial myopathy subjects (Group 4) received equal volumes of saline solution administered for two hours. All groups were treated for five consecutive days. The demographics of the subjects are disclosed in Table 5.
Compound,penetration of the plasma membrane [1],serious adverse events [2],"vital signs, electrocardiograms, clinical laboratory findings [2]"
"2′,6′-Dmt-D-Arg-Phe-Lys-NH2",readily penetrates the plasma membrane of several mammalian cell types in an energy-independent manner,,
"Cc1cc(O)cc(C)c1C[C@H](NC(=O)[C@H](N)CCCNC(=N)N)C(=O)N[C@@H](CCCCN)C(=O)N[C@@H](Cc1ccccc1)C(N)=O [D-Arg-2′,6′-Dmt-Lys-Phe-NH2] (H-[dR][Dmt]KF-NH2)",,None of the test subjects exhibited any serious adverse events,no significant trends changes
